Read-outs that look alike come from different tables or passages of the source.
Key:
HuTu-80 cells [1] = test system: HuTu-80 cells; design: method as in PMID 28688958, PMID 26037611, PMID 28887170; conditions: MTT, 24 h; values marked by asterisk; ref [21],[22],[23]; read-out: IC50 HuTu-80 (duodenum); cited from earlier work
KB-3-1 cells [2] = test system: KB-3-1 cells; design: method as in PMID 28688958, PMID 26037611, PMID 28887170; conditions: MTT, 24 h; values marked by asterisk; ref [21],[22],[23]; read-out: IC50 KB3-1 (cervix); cited from earlier work
[3] = test system: non-transformed human fibroblasts hFF3; design: method as in PMID 28688958, PMID 26037611, PMID 28887170; conditions: MTT, 24 h; values marked by asterisk; ref [21],[22],[23]; read-out: IC50 hFF3 (fibroblast); cited from earlier work
A549 cells [4] = experiment: MTT cytotoxicity assay, A549; format: cell-based, human; conditions: ratio IC50 hFF3 / IC50 A549
Source text: (§1) According to our previous data and data published by other research groups, chemical transformations of bile acids can greatly improve their antitumor potential. Thus, as the first step of evaluation of the biological activities of our novel DCA derivatives we assessed their effects on tumor cell viability. The cytotoxicity of the compounds was investigated with respect to a panel of cultured cell lines, including human duodenal HuTu-80, hepatocellular HepG2, cervical KB-3-1 and lung A549 carcinomas as well as murine macrophage RAW264.7 and non-transformed human fibroblasts hFF3 by MTT assay.
(§2) Human duodenal carcinoma HuTu-80 cells, human hepatocellular carcinoma HepG2 cells, human cervical carcinoma KB-3-1 cells, human lung carcinoma A549 cells were obtained from the Russian Cell Culture Collection (Institute of Cytology, RAS, St. Petersburg, Russia). Non-transformed human fibroblasts hFF3 were kindly provided by Dr. Olga Koval (Institute of Chemical Biology and Fundamental Medicine, SB RAS, Novosibirsk, Russia). RAW264.7 macrophages were kindly provided by Prof. Dr. Dmitry Kuprash (Engelhardt Institute of Molecular Biology, RAS, Moscow, Russia). The cells were cultured in DMEM (Sigma-Aldrich Inc., St. Louis, MO, USA) supplemented with 10% (v/v) heat-inactivated fetal bovine serum (FBS) (BioloT, St. Petersburg, Russia), 100 U/mL penicillin (ICN Biomedicals Inc., Costa Mesa, CA, USA), 100 µg/mL streptomycin and 0.25 µg/mL amphotericin; additionally, in the case of RAW264.7 cells, concentration of glucose in the medium was increased up to 4.5 mg/mL. The cells were incubated at 37 °C in 5% CO2 and 95% air (hereafter referred to as standard conditions). DCA derivatives were dissolved in DMSO to yield stock solutions of 10 mmol/L and stored at −20 °C prior to use.
(§3) Cells were seeded in triplicate in 96-well plates at a density of 5 × 10^3 (HuTu-80, HepG2, KB-3-1, hFF3), 10^4 (A549) or 5 × 10^4 (RAW264.7) cells per well. Cells were incubated under standard conditions for 24 h and then they were treated with varying doses of investigated derivatives for subsequent 24 h. Then 10 µL of MTT solution (5 mg/mL) were added to each wells and cells were incubated for an additional 2 h under standard conditions. The crystals of formazan forming within live cells were solubilized with DMSO and the absorbance was measured in a Multiscan RC plate reader (Thermo LabSystems, Helsinki, Finland) at a test and reference wavelengths of 570 nm and 620 nm, respectively. […] To perform SAR analysis, hierarchical clustering of compounds based on their IC50 values was fulfilled with Euclidean distance by using the Morpheus tool (https://software.broadinstitute.org/morpheus/), a platform designed for visualization and analysis of data in a matrix format. Heatmap, containing compounds’ SI values, were constructed by using the Excel 2010 software (Microsoft, Redmond, WA, USA). In order to reveal whether ROS participate in the induction of cell death by compound 9, HuTu-80 cells cultured in 96-well plate were pretreated by NAC at 2 mM for 1 h. Thereafter, the medium was replaced by fresh medium with compound 9 at 8 µM and the cells were incubated with subsequent 24 h under standard conditions. After this time period, the curves of cytotoxicity of compound 9 in the presence or absence of NAC were compared.

RAW264.7 macrophages = experiment: MTT cytotoxicity assay, RAW264.7; format: cell-based, murine; conditions: for IC50: Mus musculus, RAW264.7, MTT, 24 h, read-out: IC50 RAW264.7 (macrophage); for Selectivity index RAW264: ratio IC50 hFF3 / IC50 RAW264.7
Source text: as §1, §2, §3

[5] = test system: panel of cultured cell lines (HuTu-80, HepG2, KB-3-1, A549, RAW264.7, hFF3); design: method as in PMID 28688958, PMID 26037611, PMID 28887170; conditions: MTT, 24 h; summary of Table 1 values marked by asterisk; ref [21],[22],[23]; read-out: IC50, range or lowest value over tested cell lines; cited from earlier work
HepG2 cells [6] = test system: HepG2 cells; design: method as in PMID 28688958, PMID 26037611, PMID 28887170; conditions: MTT, 24 h; values marked by asterisk; ref [21],[22],[23]; read-out: IC50 HepG2 (liver); cited from earlier work
HepG2 cells [7] = experiment: MTT cytotoxicity assay, HepG2; format: cell-based, human; conditions: ratio IC50 hFF3 / IC50 HepG2
Source text: as §1, §2, §3

[8] = test system: NO synthesis by IFNγ-activated RAW264.7 cells; experiment: Inhibition of NO production by stimulated macrophages (Griess); format: cell-based, murine; conditions: Mus musculus, read-out: IC50NO
Description: RAW264.7 cells were seeded in triplicate in 96-well plates at a density of 5 × 10^4 cells/well and incubated under standard conditions for 24 h. The cells were treated with 20 ng/mL of murine recombinant IFNγ (GIBCO, Gaithersburg, MD, USA), with or without (control) compounds at various concentrations for 24 h. The level of NO production was evaluated by determining the nitrite concentration in culture medium with a Griess Reagent System (Promega, Madison, WI, USA). The IC50^NO value was calculated as the derivative concentration required to decrease NO production to 50% of the non-treated control.

KB-3-1 cells [9] = experiment: MTT cytotoxicity assay, KB-3-1; format: cell-based, human; conditions: ratio IC50 hFF3 / IC50 KB-3-1
Source text: as §1, §2, §3

HuTu-80 cells [10] = experiment: cells; format: cell-based; conditions: ratio IC50 hFF3 / IC50 HuTu-80
Source text: as §1, §2, §3

A549 cells [11] = test system: A549 cells; design: method as in PMID 28688958, PMID 26037611, PMID 28887170; conditions: MTT, 24 h; values marked by asterisk; ref [21],[22],[23]; read-out: IC50 A549 (lung); cited from earlier work

SMILES	IC50 (HuTu-80 cells [1]) [µM]	IC50 (KB-3-1 cells [2]) [µM]	IC50 [3] [µM]	Selectivity index A549 (A549 cells [4])	IC50 (RAW264.7 macrophages) [µM]	IC50 [5] [µM]	IC50 (HepG2 cells [6]) [µM]	Selectivity index HepG-2 (HepG2 cells [7])	IC50 ([8]; RAW264.7, 24 h) [µM]	Selectivity index KB-3-1 (KB-3-1 cells [9])	Selectivity index HuTu-80 (HuTu-80 cells [10])	Selectivity index RAW264 (RAW264.7 macrophages)	IC50 (A549 cells [11]) [µM]	IC50 ([8]; 50% reduction in NO synthesis by IFNγ-activated RAW264.7 cells, 24 h) [µM]
COC(=O)CC[C@@H](C)[C@H]1CC[C@H]2[C@@H]3CC[C@@H]4C[C@H](O)CC[C@]4(C)[C@H]3CC(=O)[C@]12C [Compound 11, methyl 3α-hydroxy-12-oxo-5β-cholan-24-oate]	> 100	> 100	> 100	1	> 100	≥ 25.7	25.7 ± 3.6	>3.9	50.9 ± 5.9	–	–	–	–	–
CCN(CC)CCCNC[C@]1(O)CC[C@]2(C)C3CC(=O)[C@@]4(C)C(CC[C@@H]4[C@H](C)CCC(=O)OC)[C@@H]3CC[C@@H]2C1 (stereo partly drawn) [Compound 6]	1 ± 0.6	6.7 ± 0.6	6.2 ± 0.4	0.9	6.7 ± 0.5	1 to 6.8	3.7 ± 0.17	1.7	> 10	0.9	6.2	0.9	6.8 ± 0.3	–
C[C@H](CCC(=O)O)[C@H]1CC[C@H]2[C@@H]3CC[C@@H]4C[C@H](O)CC[C@]4(C)[C@H]3C[C@H](O)[C@]12C [DCA, deoxycholic acid]	82.9 ± 1.9	> 100	> 100	1	> 100	≥ 82.9	> 100	–	–	–	–	–	–	83.6 ± 1.6
CCN1CCN(C[C@]2(O)CC[C@]3(C)C4CC(=O)[C@@]5(C)C(CC[C@@H]5[C@H](C)CCC(=O)OC)[C@@H]4CC[C@@H]3C2)CC1 (stereo partly drawn) [Compound 7]	8.3 ± 1.2	28.6 ± 0.5	17.4 ± 1.6	0.7	37.8 ± 1.7	–	3.8 ± 0.3	4.6	> 10	0.6	2	0.5	23.5 ± 3	–
CCN(CC)CCNC[C@]1(O)CC[C@]2(C)C3CC(=O)[C@@]4(C)C(CC[C@@H]4[C@H](C)CCC(=O)OC)[C@@H]3CC[C@@H]2C1 (stereo partly drawn) [Compound 5]	3.3 ± 0.1	21.6 ± 3.4	7.4 ± 1	0.3	20.9 ± 2.1	3.3 to 25.5	4.3 ± 0.3	1.7	> 10	0.3	2.2	0.4	25.5 ± 0.8	–
COC(=O)CC[C@@H](C)[C@H]1CCC2[C@@H]3CC[C@@H]4C[C@](O)(CN5CCN(C)CC5)CC[C@]4(C)C3CC(=O)[C@@]21C (stereo partly drawn) [Compound 4]	4.7 ± 0.2	23.5 ± 1.7	32.5 ± 1.4	1.5	20.4 ± 0.4	–	3.6 ± 0.7	9	> 10	1.4	6.9	1.6	21.6 ± 2.5	–
COC(=O)CC[C@@H](C)[C@H]1CCC2[C@@H]3CC[C@@H]4C[C@](O)(CNCCN(C)C)CC[C@]4(C)C3CC(=O)[C@@]21C (stereo partly drawn) [Compound 2]	7.1 ± 0.6	26.2 ± 0.8	25.4 ± 2.2	0.7	21.7 ± 0.87	7.1 to 36	8 ± 0.9	3.2	> 10	1	3.6	1.2	36 ± 0.7	–
COC(=O)CC[C@@H](C)[C@H]1CCC2[C@@H]3CC[C@@H]4C[C@](O)(CNCCCN(C)C)CC[C@]4(C)C3CC(=O)[C@@]21C (stereo partly drawn) [Compound 3]	3 ± 0.4	5.9 ± 0.5	6.5 ± 0.5	1	6.7 ± 0.4	3 to 6.8	4 ± 0.2	1.6	> 10	1.1	2.2	1	6.8 ± 0.1	–
COC(=O)CC[C@@H](C)[C@H]1CCC2[C@@H]3CC[C@@H]4C[C@@]5(CC[C@]4(C)C3CC(=O)[C@@]21C)CO5 (stereo partly drawn) [Compound 1, methyl 3β-oxirane-12-oxo-5β-cholan-24-oate]	17 ± 1.6	27.9 ± 2.5	53.9 ± 3.3	–	> 100	≥ 17	43.5 ± 1.9	–	16.4 ± 0.9	–	1.6	<0.5	–	–
